In ChEMBL document CHEMBL1201862, “PubChem BioAssay data set” (2004):
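Grown in 96-well plates, cells were treated for 48 hours with each compound at five concentrations. Insufficient inhibition: endpoint recorded as highest concentration tested. GI50 marks 50% less growth.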 Calls of active or inactive are those of the source. Cut-off read from the data, not from the text of the source: active = GI50 up to about 1.1 µM and inactive = higher.

Tests used:
Assay in all cases: DTP human tumour cell line panel, 48 h
[1] = tested on: HCT-116
[2] = tested on: EKVX
[3] = tested on: NCI/ADR-RES
[4] = tested on: HCC 2998
[5] = tested on: MOLT-4
[6] = tested on: NCI-H226
[7] = tested on: MCF7
[8] = tested on: A498
[9] = tested on: MDA-MB-435
[10] = tested on: SK-MEL-5
[11] = tested on: PC-3
[12] = tested on: IGROV-1
[13] = tested on: UACC-257
[14] = tested on: BT-549
[15] = tested on: ACHN
[16] = tested on: SNB-75
[17] = tested on: OVCAR-3
[18] = tested on: SF-268
[19] = tested on: UO-31

Structure (SMILES) | GI50 [1] | GI50 [2] | GI50 [3] | GI50 [4] | GI50 [5] | GI50 [6] | GI50 [7] | GI50 [8] | GI50 [9] | GI50 [10] | GI50 [11] | GI50 [12] | GI50 [13] | GI50 [14] | GI50 [15] | GI50 [16] | GI50 [17] | GI50 [18] | GI50 [19]
COC(=O)c1ccccc1CC1Cc2cc3c(cc2C1=O)CCC3 (stereo not given) | 5.32 µM (inactive) | 25.8 µM (inactive) | 3.05 µM (inactive) | > 41.1 µM (inactive) | 5.11 µM (inactive) | 18.5 µM (inactive) | 14.6 µM (inactive) | 11.7 µM (inactive) | 1.95 µM (inactive) | 7.83 µM (inactive) | 11.1 µM (inactive) | 16 µM (inactive) | 19.3 µM (inactive) | 10.8 µM (inactive) | 27.7 µM (inactive) | 11.4 µM (inactive) | 13.1 µM (inactive) | 29.6 µM (inactive) | 22.3 µM (inactive)
CCCCCCCCCCCCCCCC[N+](C)(C)Cc1ccc(F)cc1 | 1.48 µM (inactive) | 2 µM (inactive) | 18.1 µM (inactive) | 1.47 µM (inactive) | 1.46 µM (inactive) | 2.15 µM (inactive) | 1.61 µM (inactive) | 26.2 µM (inactive) | 1.84 µM (inactive) | 1.75 µM (inactive) | 1.11 µM (active) | 0.383 µM (active) | 1.79 µM (inactive) | 2.37 µM (inactive) | 3.07 µM (inactive) | 1.39 µM (inactive) | 1.94 µM (inactive) | 1.56 µM (inactive) | 6.84 µM (inactive)
CC(C)(C)CNCCO | > 100 µM (inactive) | > 100 µM (inactive) | > 100 µM (inactive) | > 100 µM (inactive) | – | > 100 µM (inactive) | > 100 µM (inactive) | > 100 µM (inactive) | > 100 µM (inactive) | > 100 µM (inactive) | > 100 µM (inactive) | > 100 µM (inactive) | > 100 µM (inactive) | > 100 µM (inactive) | > 100 µM (inactive) | > 100 µM (inactive) | > 100 µM (inactive) | > 100 µM (inactive) | > 100 µM (inactive)
COc1cccc(-n2nnc3c(N)nc(N)nc32)c1 | > 100 µM (inactive) | 12.3 µM (inactive) | > 100 µM (inactive) | – | > 100 µM (inactive) | > 100 µM (inactive) | > 100 µM (inactive) | > 100 µM (inactive) | > 100 µM (inactive) | > 100 µM (inactive) | > 100 µM (inactive) | 51.6 µM (inactive) | > 100 µM (inactive) | > 100 µM (inactive) | 53.7 µM (inactive) | 15.7 µM (inactive) | > 100 µM (inactive) | 5.96 µM (inactive) | –
CN(C)c1ncnc2c1ncn2CCn1cnc2c(N(C)C)ncnc21 | > 100 µM (inactive) | > 100 µM (inactive) | > 100 µM (inactive) | > 100 µM (inactive) | < 0.01 µM (active) | – | > 100 µM (inactive) | > 100 µM (inactive) | > 100 µM (inactive) | > 100 µM (inactive) | > 100 µM (inactive) | > 100 µM (inactive) | > 100 µM (inactive) | > 100 µM (inactive) | > 100 µM (inactive) | > 100 µM (inactive) | > 100 µM (inactive) | > 100 µM (inactive) | > 100 µM (inactive)
C=CCCC(=O)CC(O)(C(F)(F)F)C(F)(F)F | > 100 µM (inactive) | > 100 µM (inactive) | > 100 µM (inactive) | > 100 µM (inactive) | > 100 µM (inactive) | > 100 µM (inactive) | > 100 µM (inactive) | > 100 µM (inactive) | > 100 µM (inactive) | > 100 µM (inactive) | > 100 µM (inactive) | > 100 µM (inactive) | > 100 µM (inactive) | > 100 µM (inactive) | > 100 µM (inactive) | > 100 µM (inactive) | > 100 µM (inactive) | – | > 100 µM (inactive)
C[C@@H]1OC(=O)C[C@H]2CC(=O)N(CCC3CN(C(=O)c4ccccc4)c4ccccc43)C[C@@H]21 (stereo not given in full) | > 100 µM (inactive) | > 100 µM (inactive) | > 100 µM (inactive) | > 100 µM (inactive) | > 100 µM (inactive) | – | > 100 µM (inactive) | > 100 µM (inactive) | > 100 µM (inactive) | > 100 µM (inactive) | > 100 µM (inactive) | > 100 µM (inactive) | > 100 µM (inactive) | > 100 µM (inactive) | > 100 µM (inactive) | > 100 µM (inactive) | > 100 µM (inactive) | > 100 µM (inactive) | > 100 µM (inactive)
Brc1ccc2c3c1[C@@H]1O[C@@H]1c1cccc(c1-3)[C@@H]1O[C@H]21 | 13.8 µM (inactive) | 19.6 µM (inactive) | 17.4 µM (inactive) | – | > 53 µM (inactive) | 39.7 µM (inactive) | 9.08 µM (inactive) | 26.9 µM (inactive) | 15 µM (inactive) | 16.9 µM (inactive) | 23.6 µM (inactive) | – | 28.4 µM (inactive) | 21.1 µM (inactive) | 22.1 µM (inactive) | 19.8 µM (inactive) | 19.9 µM (inactive) | 24.2 µM (inactive) | 15.4 µM (inactive)
COc1cccc2c1-c1ccccc1[C@H](Nc1ccccc1)[C@@]2(C)O | 4.11 µM (inactive) | 11 µM (inactive) | 3.64 µM (inactive) | 7.26 µM (inactive) | 7.28 µM (inactive) | 3.4 µM (inactive) | 4.34 µM (inactive) | 8.95 µM (inactive) | 1.56 µM (inactive) | 3.62 µM (inactive) | 6.21 µM (inactive) | – | 6.11 µM (inactive) | 8.41 µM (inactive) | 9.57 µM (inactive) | 2.28 µM (inactive) | 2.7 µM (inactive) | 5.71 µM (inactive) | 4.93 µM (inactive)
CCOCc1c(C)cc(C)c(C2C(C(=O)c3ccccc3)N3c4ccccc4C=CC3C2(C#N)C(=O)OCC)c1C (stereo not given) | 26.7 µM (inactive) | 16.1 µM (inactive) | 33.7 µM (inactive) | 18.1 µM (inactive) | 86.5 µM (inactive) | – | 24.8 µM (inactive) | > 100 µM (inactive) | 38.7 µM (inactive) | 14.8 µM (inactive) | 25.8 µM (inactive) | 10.6 µM (inactive) | 50.1 µM (inactive) | 28.1 µM (inactive) | 50.9 µM (inactive) | – | 17.4 µM (inactive) | 53.8 µM (inactive) | 49.1 µM (inactive)
Clc1cc(Br)c2c3c(c(Br)cc(Cl)c13)C(Br)=C2Br | 21.2 µM (inactive) | 28.6 µM (inactive) | 22.8 µM (inactive) | 18.3 µM (inactive) | 19.8 µM (inactive) | 39.4 µM (inactive) | 34.8 µM (inactive) | > 100 µM (inactive) | 39.4 µM (inactive) | – | 26.7 µM (inactive) | 16.7 µM (inactive) | > 100 µM (inactive) | 38.7 µM (inactive) | 19.7 µM (inactive) | 13.8 µM (inactive) | 30.3 µM (inactive) | 22.5 µM (inactive) | 44.6 µM (inactive)
Cc1nc2ccc(Cl)cc2c(-n2ccnc2)c1CCn1ccnc1 | 23.8 µM (inactive) | – | 2.03 µM (inactive) | 49.8 µM (inactive) | – | 16.4 µM (inactive) | 32.3 µM (inactive) | 21.5 µM (inactive) | 32.1 µM (inactive) | 20.7 µM (inactive) | 22.1 µM (inactive) | 26.1 µM (inactive) | 18.8 µM (inactive) | 19.8 µM (inactive) | 15.7 µM (inactive) | 20 µM (inactive) | 32.1 µM (inactive) | 30.2 µM (inactive) | 14.5 µM (inactive)
C=CCSc1nn(CC=C)cc2ncnc1-2 | > 100 µM (inactive) | > 100 µM (inactive) | > 100 µM (inactive) | – | > 100 µM (inactive) | > 100 µM (inactive) | > 100 µM (inactive) | > 100 µM (inactive) | > 100 µM (inactive) | > 100 µM (inactive) | > 100 µM (inactive) | > 100 µM (inactive) | > 100 µM (inactive) | > 100 µM (inactive) | > 100 µM (inactive) | > 100 µM (inactive) | > 100 µM (inactive) | > 100 µM (inactive) | > 100 µM (inactive)
O=C(O)C1C2OC(C(Br)C2Br)C1C(=O)O (stereo not given) | > 100 µM (inactive) | > 100 µM (inactive) | > 100 µM (inactive) | – | > 100 µM (inactive) | > 100 µM (inactive) | > 100 µM (inactive) | > 100 µM (inactive) | > 100 µM (inactive) | > 100 µM (inactive) | > 100 µM (inactive) | > 100 µM (inactive) | > 100 µM (inactive) | > 100 µM (inactive) | > 100 µM (inactive) | > 100 µM (inactive) | > 100 µM (inactive) | > 100 µM (inactive) | > 100 µM (inactive)
COc1ccccc1NC(=S)Nc1cccc(C)n1 | > 100 µM (inactive) | 16.2 µM (inactive) | > 100 µM (inactive) | – | > 100 µM (inactive) | 36.9 µM (inactive) | > 100 µM (inactive) | > 100 µM (inactive) | > 100 µM (inactive) | > 100 µM (inactive) | > 100 µM (inactive) | 31.8 µM (inactive) | > 100 µM (inactive) | > 100 µM (inactive) | – | 1.07 µM (active) | > 100 µM (inactive) | 18.4 µM (inactive) | > 100 µM (inactive)
CN1CCCC(OC(=O)c2cc3cc(CCl)ccc3oc2=O)C1 (stereo not given) | 19.2 µM (inactive) | 31.2 µM (inactive) | 27.9 µM (inactive) | 18.3 µM (inactive) | 29.6 µM (inactive) | 23.9 µM (inactive) | 20.4 µM (inactive) | – | 18.9 µM (inactive) | 17.3 µM (inactive) | 18.3 µM (inactive) | 28.6 µM (inactive) | 18.1 µM (inactive) | 21 µM (inactive) | 23.3 µM (inactive) | 22.2 µM (inactive) | 14.2 µM (inactive) | 21.7 µM (inactive) | 15.8 µM (inactive)
